# Laboratory results taken from paper PMC11864979, “First-in-class ultralong-target-residence-time p38α inhibitors as a mitosis-targeted therapy for colorectal cancer” (Nature Cancer, 2025).
# Read-outs that look alike come from different tables or passages of the source.
# Assays:
# Experiment in all cases: selectivity profiling in a panel of 340 wild-type kinases (Reaction Biology Europe)
# Type in all cases: binding
# 340 wild-type kinases [1] = target: T1, 340 wild-type kinases (Homo sapiens, UniProt Q16832)
# T1 construct: purchased Reaction Biology Europe
# T1 sequence (Q16832 22-855): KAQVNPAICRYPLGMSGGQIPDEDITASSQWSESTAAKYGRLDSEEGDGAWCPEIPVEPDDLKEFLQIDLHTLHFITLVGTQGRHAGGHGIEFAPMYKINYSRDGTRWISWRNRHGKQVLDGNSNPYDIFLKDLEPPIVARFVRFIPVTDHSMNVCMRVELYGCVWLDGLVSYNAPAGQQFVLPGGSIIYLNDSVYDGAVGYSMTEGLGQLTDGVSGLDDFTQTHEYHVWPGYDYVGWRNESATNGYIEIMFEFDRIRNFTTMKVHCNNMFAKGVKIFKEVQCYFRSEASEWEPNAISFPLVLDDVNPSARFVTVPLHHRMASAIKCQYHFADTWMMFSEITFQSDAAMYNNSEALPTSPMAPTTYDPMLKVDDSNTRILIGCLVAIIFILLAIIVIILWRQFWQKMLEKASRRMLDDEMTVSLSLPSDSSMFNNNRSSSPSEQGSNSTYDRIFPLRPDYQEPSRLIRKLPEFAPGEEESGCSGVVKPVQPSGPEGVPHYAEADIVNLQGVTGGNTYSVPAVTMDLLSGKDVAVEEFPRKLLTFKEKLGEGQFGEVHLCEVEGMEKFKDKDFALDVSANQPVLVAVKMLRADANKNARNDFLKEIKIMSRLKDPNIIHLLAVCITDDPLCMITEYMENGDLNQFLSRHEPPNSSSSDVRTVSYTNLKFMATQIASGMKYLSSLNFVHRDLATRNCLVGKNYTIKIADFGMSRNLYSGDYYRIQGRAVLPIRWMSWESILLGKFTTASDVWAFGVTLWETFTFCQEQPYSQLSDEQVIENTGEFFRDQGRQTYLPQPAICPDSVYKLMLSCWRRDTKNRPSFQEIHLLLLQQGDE
# 340 wild-type kinases [2] = target: T2, 340 wild-type kinases (Homo sapiens, UniProt Q9NZJ5)
# T2 construct: purchased Reaction Biology Europe
# T2 sequence (Q9NZJ5 30-1116): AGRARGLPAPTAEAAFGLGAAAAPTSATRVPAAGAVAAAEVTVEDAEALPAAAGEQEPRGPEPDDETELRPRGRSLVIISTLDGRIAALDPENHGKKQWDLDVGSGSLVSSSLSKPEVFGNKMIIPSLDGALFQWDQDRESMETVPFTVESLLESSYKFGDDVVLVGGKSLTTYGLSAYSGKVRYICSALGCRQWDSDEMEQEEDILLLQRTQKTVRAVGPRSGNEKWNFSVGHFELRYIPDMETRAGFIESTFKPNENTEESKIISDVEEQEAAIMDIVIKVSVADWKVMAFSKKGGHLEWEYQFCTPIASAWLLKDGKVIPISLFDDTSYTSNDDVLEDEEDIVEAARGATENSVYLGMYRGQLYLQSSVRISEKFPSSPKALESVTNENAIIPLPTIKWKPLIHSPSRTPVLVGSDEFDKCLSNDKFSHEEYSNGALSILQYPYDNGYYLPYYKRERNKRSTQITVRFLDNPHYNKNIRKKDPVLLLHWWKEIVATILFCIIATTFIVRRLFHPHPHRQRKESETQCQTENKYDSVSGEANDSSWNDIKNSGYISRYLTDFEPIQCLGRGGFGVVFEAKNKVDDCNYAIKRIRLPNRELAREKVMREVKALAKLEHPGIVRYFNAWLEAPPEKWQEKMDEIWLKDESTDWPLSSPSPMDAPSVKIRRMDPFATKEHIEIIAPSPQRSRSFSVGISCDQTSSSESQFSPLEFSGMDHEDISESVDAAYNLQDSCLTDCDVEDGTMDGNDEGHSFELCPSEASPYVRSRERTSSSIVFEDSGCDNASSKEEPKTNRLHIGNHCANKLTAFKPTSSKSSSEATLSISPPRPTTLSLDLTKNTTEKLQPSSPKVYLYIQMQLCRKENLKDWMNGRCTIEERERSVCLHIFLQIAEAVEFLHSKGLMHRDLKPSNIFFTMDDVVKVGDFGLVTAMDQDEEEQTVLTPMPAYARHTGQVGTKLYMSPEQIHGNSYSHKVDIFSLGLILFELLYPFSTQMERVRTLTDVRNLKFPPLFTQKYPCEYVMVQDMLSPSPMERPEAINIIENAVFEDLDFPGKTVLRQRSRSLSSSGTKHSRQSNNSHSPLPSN
# 340 wild-type kinases [3] = target: T3, 340 wild-type kinases (Homo sapiens, UniProt Q86Z02)
# T3 construct: purchased Reaction Biology Europe
# 340 wild-type kinases [4] = target: T4, 340 wild-type kinases (Homo sapiens, UniProt P32298)
# T4 construct: purchased Reaction Biology Europe
# 340 wild-type kinases [5] = target: T5, 340 wild-type kinases (Homo sapiens, UniProt Q96SB4)
# T5 construct: purchased Reaction Biology Europe
# 340 wild-type kinases [6] = target: T6, 340 wild-type kinases (Homo sapiens, UniProt Q9Y6E0)
# T6 construct: purchased Reaction Biology Europe
# 340 wild-type kinases [7] = target: T7, 340 wild-type kinases (Homo sapiens, UniProt Q9Y5S2)
# T7 construct: purchased Reaction Biology Europe
# T7 sequence (Q9Y5S2 whole entry): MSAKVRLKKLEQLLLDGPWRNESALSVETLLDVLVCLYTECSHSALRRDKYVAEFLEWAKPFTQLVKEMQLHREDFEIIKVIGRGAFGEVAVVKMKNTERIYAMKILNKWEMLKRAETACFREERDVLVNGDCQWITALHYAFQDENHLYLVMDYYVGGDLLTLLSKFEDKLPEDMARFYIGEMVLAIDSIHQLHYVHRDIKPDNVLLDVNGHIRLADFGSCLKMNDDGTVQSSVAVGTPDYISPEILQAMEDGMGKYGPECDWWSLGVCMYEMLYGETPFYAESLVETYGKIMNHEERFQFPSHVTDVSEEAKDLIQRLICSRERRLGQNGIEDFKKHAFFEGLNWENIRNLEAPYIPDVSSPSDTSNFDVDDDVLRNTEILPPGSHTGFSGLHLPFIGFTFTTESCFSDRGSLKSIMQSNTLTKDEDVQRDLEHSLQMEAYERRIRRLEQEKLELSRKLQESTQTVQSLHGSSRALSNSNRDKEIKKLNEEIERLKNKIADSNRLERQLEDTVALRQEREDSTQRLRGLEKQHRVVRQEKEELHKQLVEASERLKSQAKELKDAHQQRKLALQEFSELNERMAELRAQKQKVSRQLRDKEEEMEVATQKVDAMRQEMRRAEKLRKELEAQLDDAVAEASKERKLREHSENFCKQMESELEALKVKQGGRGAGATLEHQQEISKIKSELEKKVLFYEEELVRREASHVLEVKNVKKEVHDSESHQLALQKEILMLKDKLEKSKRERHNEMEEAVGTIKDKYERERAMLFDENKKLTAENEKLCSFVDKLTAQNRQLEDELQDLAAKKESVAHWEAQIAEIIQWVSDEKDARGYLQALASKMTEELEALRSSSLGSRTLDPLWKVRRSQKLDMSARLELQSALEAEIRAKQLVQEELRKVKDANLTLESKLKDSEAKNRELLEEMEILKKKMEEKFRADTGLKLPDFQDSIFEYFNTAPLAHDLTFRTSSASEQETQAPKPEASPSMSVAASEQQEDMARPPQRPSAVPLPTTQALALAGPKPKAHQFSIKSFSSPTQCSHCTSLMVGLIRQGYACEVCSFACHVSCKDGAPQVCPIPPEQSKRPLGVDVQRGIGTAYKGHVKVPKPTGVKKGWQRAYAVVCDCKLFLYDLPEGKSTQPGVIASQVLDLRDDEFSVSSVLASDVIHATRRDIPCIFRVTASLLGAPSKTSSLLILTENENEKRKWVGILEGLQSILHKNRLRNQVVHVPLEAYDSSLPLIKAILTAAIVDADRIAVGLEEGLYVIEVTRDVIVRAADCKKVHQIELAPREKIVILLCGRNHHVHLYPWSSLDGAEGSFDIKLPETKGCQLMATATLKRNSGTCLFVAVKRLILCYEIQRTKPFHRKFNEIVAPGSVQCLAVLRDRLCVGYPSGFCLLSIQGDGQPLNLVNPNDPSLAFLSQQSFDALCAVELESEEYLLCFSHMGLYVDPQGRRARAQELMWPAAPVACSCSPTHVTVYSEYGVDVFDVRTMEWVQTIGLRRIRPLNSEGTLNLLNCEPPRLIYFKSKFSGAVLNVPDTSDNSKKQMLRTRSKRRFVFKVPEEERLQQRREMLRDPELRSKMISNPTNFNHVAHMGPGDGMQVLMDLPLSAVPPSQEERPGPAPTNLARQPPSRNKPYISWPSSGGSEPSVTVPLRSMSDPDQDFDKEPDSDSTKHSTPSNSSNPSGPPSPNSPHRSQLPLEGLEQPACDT
# T5 sequence (Q96SB4 whole entry): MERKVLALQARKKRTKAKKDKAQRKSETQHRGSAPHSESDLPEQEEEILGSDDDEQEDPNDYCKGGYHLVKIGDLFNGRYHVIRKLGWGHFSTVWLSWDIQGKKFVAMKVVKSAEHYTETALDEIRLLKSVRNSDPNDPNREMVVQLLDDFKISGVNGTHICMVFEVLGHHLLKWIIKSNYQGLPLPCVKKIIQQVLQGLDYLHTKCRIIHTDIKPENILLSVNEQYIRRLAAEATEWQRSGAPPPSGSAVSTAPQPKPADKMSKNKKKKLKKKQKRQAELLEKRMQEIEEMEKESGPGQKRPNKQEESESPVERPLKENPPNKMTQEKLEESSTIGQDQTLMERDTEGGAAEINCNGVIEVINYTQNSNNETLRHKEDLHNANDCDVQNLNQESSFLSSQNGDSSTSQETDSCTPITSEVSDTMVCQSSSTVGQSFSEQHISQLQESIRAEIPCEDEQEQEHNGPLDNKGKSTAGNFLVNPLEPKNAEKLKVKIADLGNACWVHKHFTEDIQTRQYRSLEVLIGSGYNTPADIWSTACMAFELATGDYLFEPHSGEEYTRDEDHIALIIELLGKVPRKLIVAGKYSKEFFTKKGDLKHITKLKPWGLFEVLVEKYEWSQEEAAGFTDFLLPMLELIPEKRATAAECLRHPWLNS
# T6 sequence (Q9Y6E0 whole entry): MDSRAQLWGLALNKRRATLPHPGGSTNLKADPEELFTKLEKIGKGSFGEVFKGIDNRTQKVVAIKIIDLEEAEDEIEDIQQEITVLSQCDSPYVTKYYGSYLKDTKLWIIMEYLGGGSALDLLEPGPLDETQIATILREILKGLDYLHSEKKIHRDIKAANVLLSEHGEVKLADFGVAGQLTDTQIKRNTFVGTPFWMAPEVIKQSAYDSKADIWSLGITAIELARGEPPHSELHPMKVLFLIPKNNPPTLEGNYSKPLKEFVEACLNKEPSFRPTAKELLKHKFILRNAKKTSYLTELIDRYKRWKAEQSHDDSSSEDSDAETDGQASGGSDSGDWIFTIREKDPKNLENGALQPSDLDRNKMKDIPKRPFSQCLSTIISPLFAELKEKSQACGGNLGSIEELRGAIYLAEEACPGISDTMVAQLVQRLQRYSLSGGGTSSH
# T3 sequence (Q86Z02 whole entry): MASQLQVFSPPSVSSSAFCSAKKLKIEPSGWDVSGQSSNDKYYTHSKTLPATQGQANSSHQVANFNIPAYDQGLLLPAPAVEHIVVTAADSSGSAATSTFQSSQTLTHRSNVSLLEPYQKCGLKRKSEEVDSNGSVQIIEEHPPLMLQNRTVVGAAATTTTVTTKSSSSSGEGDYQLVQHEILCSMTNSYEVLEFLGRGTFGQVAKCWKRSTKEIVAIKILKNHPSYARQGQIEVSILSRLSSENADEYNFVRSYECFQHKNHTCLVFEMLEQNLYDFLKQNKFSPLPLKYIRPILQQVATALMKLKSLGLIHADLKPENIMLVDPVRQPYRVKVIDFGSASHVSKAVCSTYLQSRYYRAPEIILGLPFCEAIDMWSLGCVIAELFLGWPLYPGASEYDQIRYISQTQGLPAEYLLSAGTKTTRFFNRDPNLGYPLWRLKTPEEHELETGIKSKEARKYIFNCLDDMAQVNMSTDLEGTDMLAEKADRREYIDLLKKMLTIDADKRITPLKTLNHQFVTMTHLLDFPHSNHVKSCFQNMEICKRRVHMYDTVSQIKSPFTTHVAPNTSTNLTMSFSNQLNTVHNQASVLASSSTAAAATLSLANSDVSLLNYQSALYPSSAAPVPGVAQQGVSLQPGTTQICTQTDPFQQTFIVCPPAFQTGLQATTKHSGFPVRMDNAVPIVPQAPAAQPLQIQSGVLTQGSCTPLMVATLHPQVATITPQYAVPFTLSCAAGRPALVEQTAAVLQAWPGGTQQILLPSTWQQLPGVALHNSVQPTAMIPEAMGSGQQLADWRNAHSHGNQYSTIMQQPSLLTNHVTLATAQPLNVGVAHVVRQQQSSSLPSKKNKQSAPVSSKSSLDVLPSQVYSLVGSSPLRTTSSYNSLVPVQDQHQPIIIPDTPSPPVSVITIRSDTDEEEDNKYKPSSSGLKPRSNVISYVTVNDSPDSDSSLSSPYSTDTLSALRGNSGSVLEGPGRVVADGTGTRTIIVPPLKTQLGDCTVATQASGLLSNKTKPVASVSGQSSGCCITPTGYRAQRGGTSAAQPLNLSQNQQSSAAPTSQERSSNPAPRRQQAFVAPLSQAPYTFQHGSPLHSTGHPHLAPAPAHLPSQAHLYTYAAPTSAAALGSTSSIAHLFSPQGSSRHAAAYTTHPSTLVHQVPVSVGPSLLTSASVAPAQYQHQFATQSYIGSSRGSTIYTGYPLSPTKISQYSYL
# T4 sequence (P32298 whole entry): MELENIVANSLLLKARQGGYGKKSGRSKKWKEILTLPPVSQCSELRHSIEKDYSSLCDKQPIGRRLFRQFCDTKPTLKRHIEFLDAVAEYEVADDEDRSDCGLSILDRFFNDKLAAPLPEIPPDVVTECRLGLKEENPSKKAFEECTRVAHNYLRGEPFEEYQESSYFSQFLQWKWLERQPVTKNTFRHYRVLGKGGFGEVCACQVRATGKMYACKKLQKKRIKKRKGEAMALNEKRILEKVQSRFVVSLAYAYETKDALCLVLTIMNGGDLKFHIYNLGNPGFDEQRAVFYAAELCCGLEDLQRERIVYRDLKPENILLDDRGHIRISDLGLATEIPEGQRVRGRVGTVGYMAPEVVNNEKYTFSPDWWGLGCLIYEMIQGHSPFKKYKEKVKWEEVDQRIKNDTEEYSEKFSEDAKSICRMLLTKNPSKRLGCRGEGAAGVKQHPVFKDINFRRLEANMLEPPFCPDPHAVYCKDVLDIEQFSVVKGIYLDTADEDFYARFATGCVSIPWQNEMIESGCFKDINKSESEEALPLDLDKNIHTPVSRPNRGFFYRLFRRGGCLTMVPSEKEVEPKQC
structure (smiles),measurement,setting,value
CNC(=O)c1ccc2c(c1)C(=O)c1ccc(Nc3ccc(F)c(NC(=O)C4CC4)c3)cc1CC2 [Compound 2015],remaining activity at 0.2 µM,"340 wild-type kinases [1]; 0.2 µM 2015, read-out: DDR2 residual activity",106%
same,remaining activity at 1 µM,"340 wild-type kinases [1]; 1 µM 2015, read-out: DDR2 residual activity",98.8%
same,remaining activity at 0.2 µM,"340 wild-type kinases [1]; DDR2, 0.2 µM, read-out: residual activity",106%
same,remaining activity at 1 µM,"340 wild-type kinases [1]; DDR2, 1 µM, read-out: residual activity",98.8%
same,remaining activity at 1 µM,"340 wild-type kinases [2]; 1 µM 2015, read-out: EIF2AK3 residual activity",86.3%
same,remaining activity at 0.2 µM,"340 wild-type kinases [2]; EIF2AK3, 0.2 µM, read-out: residual activity",93.3%
same,remaining activity at 1 µM,"340 wild-type kinases [2]; EIF2AK3, 1 µM, read-out: residual activity",86.3%
same,remaining activity at 0.2 µM,"340 wild-type kinases [3]; 0.2 µM 2015, read-out: HIPK1 residual activity",98.9%
same,remaining activity at 1 µM,"340 wild-type kinases [3]; 1 µM 2015, read-out: HIPK1 residual activity",102%
same,remaining activity at 0.2 µM,"340 wild-type kinases [3]; HIPK1, 0.2 µM, read-out: residual activity",98.9%
same,remaining activity at 1 µM,"340 wild-type kinases [3]; HIPK1, 1 µM, read-out: residual activity",102%
same,remaining activity at 0.2 µM,"340 wild-type kinases [4]; 0.2 µM 2015, read-out: GRK4 residual activity",123%
same,remaining activity at 1 µM,"340 wild-type kinases [4]; 1 µM 2015, read-out: GRK4 residual activity",104%
same,remaining activity at 0.2 µM,"340 wild-type kinases [4]; GRK4, 0.2 µM, read-out: residual activity",123%
same,remaining activity at 1 µM,"340 wild-type kinases [4]; GRK4, 1 µM, read-out: residual activity",104%
same,remaining activity at 0.2 µM,"340 wild-type kinases [5]; 0.2 µM 2015, read-out: SRPK1 residual activity",108%
same,remaining activity at 1 µM,"340 wild-type kinases [5]; 1 µM 2015, read-out: SRPK1 residual activity",105%
same,remaining activity at 0.2 µM,"340 wild-type kinases [5]; SRPK1, 0.2 µM, read-out: residual activity",108%
same,remaining activity at 1 µM,"340 wild-type kinases [5]; SRPK1, 1 µM, read-out: residual activity",105%
same,remaining activity at 0.2 µM,"340 wild-type kinases [6]; 0.2 µM 2015, read-out: MST3 residual activity",119%
same,remaining activity at 1 µM,"340 wild-type kinases [6]; 1 µM 2015, read-out: MST3 residual activity",117%
same,remaining activity at 0.2 µM,"340 wild-type kinases [6]; MST3, 0.2 µM, read-out: residual activity",119%
same,remaining activity at 1 µM,"340 wild-type kinases [6]; MST3, 1 µM, read-out: residual activity",117%
same,remaining activity at 0.2 µM,"340 wild-type kinases [7]; 0.2 µM 2015, read-out: CDC42BPB residual activity",101%
same,remaining activity at 1 µM,"340 wild-type kinases [7]; 1 µM 2015, read-out: CDC42BPB residual activity",93.2%
same,remaining activity at 0.2 µM,"340 wild-type kinases [7]; CDC42BPB, 0.2 µM, read-out: residual activity",101%
same,remaining activity at 1 µM,"340 wild-type kinases [7]; CDC42BPB, 1 µM, read-out: residual activity",93.2%
